Assay results taken from article PMC3117668 (ACS medicinal chemistry letters, 2011).
≈ marks a conversion by molar mass, not a printed value.

Key:
M. bovis BCG = experiment: microbe, parasite or virus in culture; format: cell-based; conditions: Mycobacterium tuberculosis variant bovis BCG, read-out: MIC90 M. bovis BCG
H37Rv TB = experiment: Whole cell MIC against H37Rv; format: cell-based; conditions: Mycobacterium tuberculosis
H37Rv-TB = experiment: MIC re-screen in the presence of 4% BSA and 10% FBS; format: cell-based, Mycobacterium tuberculosis; conditions: ATP and MABA readouts

Row | SMILES | MIC (H37Rv TB) [µM] | MIC shift (H37Rv-TB) | further results
1 | CO[C@H]1/C=C/O[C@@]2(C)Oc3c(C)c(O)c4c(O)c(c(/C=N/N5CCN(C)CC5)c(O)c4c3C2=O)NC(=O)/C(C)=C\C=C\[C@H](C)[C@H](O)[C@@H](C)[C@@H](O)[C@@H](C)[C@H](OC(C)=O)[C@@H]1C [RMP, Rifampicin] | – | – | MIC90 (M. bovis BCG): < 0.78 µM
2 | CCOC(=O)c1c(C)nc2cc(C)ccn12 [ethyl 2,7-dimethylimidazo[1,2-a]pyridine-3-carboxylate] | ~65 (≈ 14.2 µg/mL) | – | –
3 | Cc1ccn2c(C(=O)NCc3cccc(F)c3)c(C)nc2c1 [Compound 8] | ~0.3 (≈ 0.0892 µg/mL) | – | –
4 | Cc1ccn2c(C(=O)NCc3ccccc3)c(C)nc2c1 [Compound 1] | – | less than two fold | –
5 | Cc1ccn2c(C(=O)NCc3ccc(Cl)c(Cl)c3)c(C)nc2c1 [Compound 7] | 9 to 14 (≈ 3.13 to 4.88 µg/mL) | – | –
6 | COc1cccc(CNC(=O)c2c(C)nc3ncc(C)cn23)c1 [Compound 10] | – | less than two fold | –
